Results published in patent US20220089592A1, “IMIDAZO[1,2-A]PYRIDINYL DERIVATIVES AS IRAK4 INHIBITORS” (priority 2019, published 2022).
Counter-ions that a name gives are not always drawn.

Experiments:
IRAK4 [1] = molecular target: T1, IRAK4 (Homo sapiens, UniProt Q9NWZ3); test: 2-hour 10 μM ATP Biochemical Assay (MesoScale Detection format; IRAK4 phosphorylation of biotin labeled IRAK1 activation loop peptide); conditions: IRAK4 MSD BIOCHEMICAL (10 μM ATP) IC50 (μM), 1 nM IRAK4, 2 hours
T1 sequence (Q9NWZ3 1-460): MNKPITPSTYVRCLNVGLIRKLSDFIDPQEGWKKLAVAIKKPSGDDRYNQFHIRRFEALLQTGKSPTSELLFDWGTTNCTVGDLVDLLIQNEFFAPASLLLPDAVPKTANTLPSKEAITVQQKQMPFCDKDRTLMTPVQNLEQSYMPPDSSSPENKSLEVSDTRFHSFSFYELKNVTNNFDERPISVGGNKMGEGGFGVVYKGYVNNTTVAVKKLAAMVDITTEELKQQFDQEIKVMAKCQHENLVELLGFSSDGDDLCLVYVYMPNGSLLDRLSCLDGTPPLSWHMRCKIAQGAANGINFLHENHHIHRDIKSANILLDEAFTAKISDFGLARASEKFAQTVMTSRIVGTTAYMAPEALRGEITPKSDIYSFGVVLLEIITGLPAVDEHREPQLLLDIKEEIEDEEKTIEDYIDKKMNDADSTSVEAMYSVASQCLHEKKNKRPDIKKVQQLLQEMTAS
Method: The 2-hour 10 μM ATP Biochemical Assay employs a MesoScale Detection (MSD) format.
The activity is quenched with 11 μl of 70 mM EDTA, pH 8.
To detect the phosphorylated biotinylated peptide substrate, 30 μl of the quenched reaction mixture is added to equivalent wells of a 384 well streptavidin coated MesoScale plate (Meso Scale Discovery #L21SA-1). After a 1 hour incubation of the plate for 1 hour at room temperature with gentle mixing, the plate wells are washed 3 times with 50 mM Tris, pH 7.5, 150 mM NaCl, 0.02% Tween-20.
A 25 μl volume of 1:500 anti-P-Threonine Rabbit polyclonal Antibody plus 1:500 Goat-anti-Rabbit Sulfo Tag Antibody (Meso Scale Discovery R32AB-1) in 50 mM Tris, pH 7.5, 150 mM NaCl, 0.02% Tween-20 plus 2% BSA is then added to each well. After a 1-hour incubation of the plate for 1 hour at room temperature with gentle mixing, the plate wells are washed, 3 times with 50 mM Tris, pH 7.5, 150 mM NaCl, 0.02% Tween-20. A 40 μl volume of 2×MSD Read Buffer (Meso Scale Discovery R92TC-1) is added to each well, and the plate is read immediately in an MSD Plate Reader (Meso Scale Discovery).

IRAK4 [2] = molecular target: T1, IRAK4; test: 2-hour 1 mM ATP IRAK4 Biochemical assay (as above, but with 100 pM IRAK4 and 1 mM ATP); conditions: IRAK4 MSD BIOCHEMICAL (1 mM ATP) IC50 (μM), 100 pM IRAK4, 2 hours
Method in brief: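 Run with 100 pM IRAK4 and 1 mM ATP for 2 hours, quenched with EDTA pH 8. Phosphorylated biotinylated peptide captured on streptavidin MSD plates and detected with anti-phosphothreonine antibody plus Sulfo-Tag secondary by electrochemiluminescence.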

Row | Compound | IC50 (IRAK4 [1]) | IC50 (IRAK4 [2])
1 | CCOc1cc2nc(C3CCN(C)C(=O)C3)cn2cc1NC(=O)c1cccc(C(F)F)n1 (racemic) [Example 75, 6-(difluoromethyl)-N-(7-ethoxy-2-(1-methyl-2-oxopiperidin-4-yl)imidazo[1,2-a]pyridin-6-yl)picolinamide] | 0.001 µM | 
2 | C[C@H](COc1cc2nc(C3CC3)cn2cc1NC(=O)c1cccc(C(F)F)n1)n1ccccc1=O (single isomer, unassigned) [Example 7] | 0.28 µM | 
3 | C[C@@H](COc1cc2nc(C3CC3)cn2cc1NC(=O)c1cccc(C(F)F)n1)n1ccccc1=O (single isomer, unassigned) [Example 8] | 0.14 µM | 
4 | CCOc1cc2nc(CC3CCOC3)cn2cc1NC(=O)c1coc(-c2cnn(C)c2)n1 (single isomer, unassigned) [Example 251, N-(7-ethoxy-2-((tetrahydrofuran-3-yl)methyl)imidazo[1,2-a]pyridin-6-yl)-2-(1-methyl-1H-pyrazol-4-yl)oxazole-4-carboxamide] | 0.002 µM | 
5 | CCOc1cc2nc(CC3CCOC3)cn2cc1NC(=O)c1coc(-c2cnn(C)c2)n1 (single isomer, unassigned) [Example 252, N-(7-ethoxy-2-((tetrahydrofuran-3-yl)methyl)imidazo[1,2-a]pyridin-6-yl)-2-(1-methyl-1H-pyrazol-4-yl)oxazole-4-carboxamide] | 0.001 µM | 
6 | COc1cc(NC(=O)c2cccc(C(F)F)n2)cn2cc(C3CC3(F)F)nc12 (single isomer, unassigned) [Example 513, N-(2-(2,2-difluorocyclopropyl)-8-methoxyimidazo[1,2-a]pyridin-6-yl)-6-(difluoromethyl)picolinamide] | 0.015 µM | 
7 | COc1cc(NC(=O)c2cccc(C(F)F)n2)cn2cc(C3CC3(F)F)nc12 (single isomer, unassigned) [Example 514, N-(2-(2,2-difluorocyclopropyl)-8-methoxyimidazo[1,2-a]pyridin-6-yl)-6-(difluoromethyl)picolinamide] | 0.016 µM | 
8 | CC(COc1cc2nc(C3CC3)cn2cc1NC(=O)c1cccc(C(F)F)n1)n1ccccc1=O (stereo not shown) [Example 6, N-(2-cyclopropyl-7-(2-(2-oxopyridin-1(2H)-yl)propoxy)imidazo[1,2-a]pyridin-6-yl)-6-(difluoromethyl)picolinamide] | 0.19 µM | 
9 | O=C(Nc1cn2cc(C3CC3)nc2cc1O)c1cccc(C(F)F)n1 [Example 10, N-(2-cyclopropyl-7-hydroxyimidazo[1,2-a]pyridin-6-yl)-6-(difluoromethyl)picolinamide] | 0.059 µM | 
10 | CC[C@@H]1[C@H](F)C(=O)N[C@@H]1COc1cc2nc(C3CC3)cn2cc1NC(=O)c1cccc(C(F)F)n1 [Example 11, N-(2-cyclopropyl-7-(((2S,3S,4S)-3-ethyl-4-fluoro-5-oxopyrrolidin-2-yl)methoxy)imidazo[1,2-a]pyridin-6-yl)-6-(difluoromethyl)picolinamide] | 0.079 µM | 
11 | CCOc1cc(NC(=O)c2cccc(C(F)F)n2)cn2cc(C3CC3)nc12 [Example 28, N-(2-cyclopropyl-8-ethoxyimidazo[1,2-a]pyridin-6-yl)-6-(difluoromethyl)picolinamide] | 0.043 µM | 
12 | CCOc1cc2nc(C3CC3)c(F)n2cc1NC(=O)c1cccc(C(F)F)n1 [Example 29, N-(2-cyclopropyl-7-ethoxy-3-fluoroimidazo[1,2-a]pyridin-6-yl)-6-(difluoromethyl)picolinamide] | 0.023 µM | 
13 | O=C(Nc1ccc2nc(C3CC3)cn2c1)c1cccc(C(F)F)n1 [Example 30, N-(2-cyclopropylimidazo[1,2-a]pyridin-6-yl)-6-(difluoromethyl)picolinamide] | 0.048 µM | 
14 | COc1nc(NC(=O)c2cccc(C(F)F)n2)cn2cc(C3CCOC(C)(C)C3)nc12 (stereo not shown) [Example 560, 6-(difluoromethyl)-N-(2-(2,2-dimethyltetrahydro-2H-pyran-4-yl)-8-methoxyimidazo[1,2-a]pyrazin-6-yl)picolinamide 2,2,2-trifluoroacetate] |  | 0.002 µM
15 | COc1nc(NC(=O)c2cccc(C(F)F)n2)cn2cc(C34CCC(CC3)OC4)nc12 [Example 561, N-(2-(2-oxabicyclo[2.2.2]octan-4-yl)-8-methoxyimidazo[1,2-a]pyrazin-6-yl)-6-(difluoromethyl)picolinamide] |  | 0.051 µM
16 | COc1nc(NC(=O)c2cccc(C(F)F)n2)cn2cc(C3CC3)nc12 [Example 562, N-(2-cyclopropyl-8-methoxyimidazo[1,2-a]pyrazin-6-yl)-6-(difluoromethyl)picolinamide 2,2,2-trifluoroacetate] |  | 0.053 µM
17 | COc1nc(NC(=O)c2cccc(C(F)F)n2)cn2cc(CCOC(F)(F)F)nc12 [Example 563, 6-(difluoromethyl)-N-(8-methoxy-2-(2-(trifluoromethoxy)ethyl)imidazo[1,2-a]pyrazin-6-yl)picolinamide 2,2,2-trifluoroacetate] |  | 0.046 µM
18 | COc1nc2nc(C3CC(OC)C3)cn2cc1NC(=O)c1cccc(C(F)F)n1 (stereo not shown) [Example 564, 6-(difluoromethyl)-N-(7-methoxy-2-(3-methoxycyclobutyl)imidazo[1,2-a]pyrimidin-6-yl)picolinamide] |  | 0.032 µM
19 | COc1nc2nc(C34CC(OC)(C3)C4)cn2cc1NC(=O)c1cccc(C(F)F)n1 [Example 565, 6-(difluoromethyl)-N-(7-methoxy-2-(3-methoxybicyclo[1.1.1]pentan-1-yl)imidazo[1,2-a]pyrimidin-6-yl)picolinamide] |  | 0.01 µM

Results, then the molecule that gave them:

Row | IC50 (IRAK4 [1]) | IC50 (IRAK4 [2]) | Compound
20 |  | 0.054 µM | COc1nc2nc(C34CC(F)(C3)C4)cn2cc1NC(=O)c1cccc(C(F)F)n1 [Example 566, 6-(difluoromethyl)-N-(2-(3-fluorobicyclo[1.1.1]pentan-1-yl)-7-methoxyimidazo[1,2-a]pyrimidin-6-yl)picolinamide 2,2,2-trifluoroacetate]
21 |  | 0.008 µM | COc1nc2nc(C34COC(C)(C3)C4)cn2cc1NC(=O)c1cccc(C(F)F)n1 [Example 567, 6-(difluoromethyl)-N-(7-methoxy-2-(1-methyl-2-oxabicyclo[2.1.1]hexan-4-yl)imidazo[1,2-a]pyrimidin-6-yl)picolinamide 2,2,2-trifluoroacetate]
22 |  | 0.009 µM | COc1nc2nc(C3C4COCC43)cn2cc1NC(=O)c1cccc(C(F)F)n1 (stereo not shown) [Example 568, N-(2-(3-oxabicyclo[3.1.0]hexan-6-yl)-7-methoxyimidazo[1,2-a]pyrimidin-6-yl)-6-(difluoromethyl)picolinamide 2,2,2-trifluoroacetate]
23 |  | 0.004 µM | COc1nc2nc(C3CCCOC3)cn2cc1NC(=O)c1cccc(C(F)F)n1 (stereo not shown) [Example 569, 6-(difluoromethyl)-N-(7-methoxy-2-(tetrahydro-2H-pyran-3-yl)imidazo[1,2-a]pyrimidin-6-yl)picolinamide]
24 |  | 0.005 µM | CCOc1nc2nc(C3CCOCC3)cn2cc1NC(=O)c1ccc2c(n1)CCC2 [Example 570, N-(7-ethoxy-2-(tetrahydro-2H-pyran-4-yl)imidazo[1,2-a]pyrimidin-6-yl)-6,7-dihydro-5H-cyclopenta[b]pyridine-2-carboxamide hydrochloride]
25 |  | 0.003 µM | CC(C)Oc1nc2nc(C34CC(C3)C4)cn2cc1NC(=O)c1cccc(C(F)F)n1 [Example 573, N-(2-(bicyclo[1.1.1]pentan-1-yl)-7-isopropoxyimidazo[1,2-a]pyrimidin-6-yl)-6-(difluoromethyl)picolinamide 2,2,2-trifluoroacetate]
26 |  | 0.002 µM | CCCOc1nc(NC(=O)c2cccc(C(F)F)n2)cn2cc(C34COC(C)(C3)C4)nc12 [Example 574, 6-(difluoromethyl)-N-(2-(1-methyl-2-oxabicyclo[2.1.1]hexan-4-yl)-8-propoxyimidazo[1,2-a]pyrazin-6-yl)picolinamide]
27 |  | 0.012 µM | CC(C)Oc1cc2nc(C34COC(C)(C3)C4)c(Cl)n2cc1NC(=O)c1cccc(C(F)F)n1 [Example 575, N-(3-chloro-7-isopropoxy-2-(1-methyl-2-oxabicyclo[2.1.1]hexan-4-yl)imidazo[1,2-a]pyridin-6-yl)-6-(difluoromethyl)picolinamide 2,2,2-trifluoroacetate]
28 |  | 0.199 µM | CC(C)Oc1nc2nc(C34COC(C)(C3)C4)c(Cl)n2cc1NC(=O)c1cccc(C(F)F)n1 [Example 576, N-(3-chloro-7-isopropoxy-2-(1-methyl-2-oxabicyclo[2.1.1]hexan-4-yl)imidazo[1,2-a]pyrimidine-6-yl)-6-(difluoromethyl)picolinamide 2,2,2-trifluoroacetate]
